This assay concerns the target T1, PTBP1 RRM1 (Homo sapiens, UniProt P26599).
T1 construct: (G41-A163); His tag; made in house; host or cells: E. coli BL21 DE3 RIL
T1 sequence (P26599 41-163): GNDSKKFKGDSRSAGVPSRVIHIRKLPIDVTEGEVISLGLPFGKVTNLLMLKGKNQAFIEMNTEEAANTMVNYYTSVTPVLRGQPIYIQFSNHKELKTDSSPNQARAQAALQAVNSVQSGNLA
Nature of the assay: Competitive fluorescence polarization assay, RRM1 and RNA-2. Format: binding. The settings on record: Fig. 3C; competitive FP with RNA-2; read-out: P-6 Ki, construct RRM1. The source says:
Different PTBP1 variants were used to investigate the mode of action of P-6via competitive FP experiments. As illustrated in Fig. 1A there is a short linker between RRM1 and the α3-helix which also makes contacts with the RNA. It is possible that when P-6 occupies the binding site of the helix, this linker is displaced disrupting its interactions with the RNA and lowering the RNA-binding affinity. To test this, we measured whether P-6 could inhibit RRM1 RNA-binding. […] Therefore, it seems most likely that P-6 inhibits RRM12 via disturbing the coordinated RNA-binding of the two RRM domains. As this is possibly regulated by the helix we tested if the peptide could inhibit RRM12–L151G where the role of the helix is reduced (Fig. 3C and S5 ^†). […] These findings further support a mode of action where P-6 disturbs coordinated RNA-binding by RRM1 and 2. […]
size exclusion chromatography (Superdex 75 16/60 or 26/60) with SEC buffer (50 mM Tris, 200 mM NaCl). Protein homogeneity was assessed by the size exclusion chromatogram and purity was checked by SDS-PAGE analysis to be >= 90%.
The gene encoding for SRSF1-RRM12 (1-195) was subcloned into pOPIN-His expression vector and expressed in E. coli BL21 (DE3). […]
Fluorescence polarization assay with PTBP1 […]
On the technique in general: Polarisation of emitted light reports the rotation of a fluorescent probe.

pKi: −log10 of the molar value.

Our source for the Ki values is PMC10411625, “Rationally designed stapled peptides allosterically inhibit PTBP1–RNA-binding” (Chemical Science, 2023).

For orientation: pKi means the Ki on a negative log10 scale, so that one unit is a factor of ten.

Turning to `CC(=O)N[C@@H](CC(N)=O)C(=O)N[C@@H](CCC(N)=O)C(=O)N[C@@]1(C)CCCC=CCCCC2(CCCC=CCCC[C@](C)(C(=O)N[C@H](C(=O)N[C@@H](CC(N)=O)C(N)=O)C(C)C)NC(=O)[C@H](CCC(N)=O)NC(=O)[C@H](CC(C)C)NC(=O)[C@H](C)NC2=O)NC(=O)[C@H](CCC(N)=O)NC(=O)[C@H](C)NC(=O)[C@H](CCCNC(=N)N)NC1=O` (stereo partly shown) [Peptide P-6], the pKi was under 3.12.
